Type in all cases: biochemical
One experiment addresses T1, IGFR-1 (Homo sapiens, UniProt P08069).
T1 construct: Kinases are expressed as either kinase domains or full length constructs; made in house
As to the kind of experiment: Kinase inhibition assay (33P transfer), IGFR-1. The settings on record: Table 2, class symbols A-E.

The next experiment concerns the target T2, EGFR (Homo sapiens, UniProt P00533).
T2 construct: Kinases are expressed as either kinase domains or full length constructs; made in house
In words: Kinase inhibition assay (33P transfer), EGFR. The settings on record: Table 2, class symbols A-E; read-out: EGFR-1. The method, boiled down:
(§1)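 Radiometric format: recombinant tagged kinase (catalytic domain or whole protein, sometimes combined with regulatory polypeptides) phosphorylates immobilised poly(Glu,Tyr) 4:1 or poly(Arg,Ser) 3:1 using [33P]ATP. Wells are washed in 0.5% phosphoric acid, then counted. IC50 is taken where substrate labelling falls by half.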

The target of a further experiment is T3, Zap-70 (Homo sapiens, UniProt P43403).
T3 construct: Kinases are expressed as either kinase domains or full length constructs; made in house
T3 sequence (P43403 1-619): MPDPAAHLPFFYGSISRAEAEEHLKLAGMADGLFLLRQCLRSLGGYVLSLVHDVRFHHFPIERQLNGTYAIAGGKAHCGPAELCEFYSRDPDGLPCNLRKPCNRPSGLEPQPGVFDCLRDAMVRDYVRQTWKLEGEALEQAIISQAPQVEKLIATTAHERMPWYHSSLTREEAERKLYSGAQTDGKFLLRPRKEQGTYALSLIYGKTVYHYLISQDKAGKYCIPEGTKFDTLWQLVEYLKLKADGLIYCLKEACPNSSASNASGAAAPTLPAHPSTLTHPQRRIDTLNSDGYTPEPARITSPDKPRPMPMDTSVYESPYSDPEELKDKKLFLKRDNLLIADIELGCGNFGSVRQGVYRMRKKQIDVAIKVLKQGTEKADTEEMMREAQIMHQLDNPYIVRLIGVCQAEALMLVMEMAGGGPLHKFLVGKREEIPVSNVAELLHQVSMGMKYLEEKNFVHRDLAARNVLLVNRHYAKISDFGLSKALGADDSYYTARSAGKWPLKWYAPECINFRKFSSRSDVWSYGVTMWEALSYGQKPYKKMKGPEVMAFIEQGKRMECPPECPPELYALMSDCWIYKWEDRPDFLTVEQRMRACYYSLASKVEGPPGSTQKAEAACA
In words: Kinase inhibition assay (33P transfer), Zap-70. The settings on record: Table 3, class symbols; read-out: Zap-1. The method, boiled down: (§2)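 Activity was read as 33P incorporation, counted by liquid scintillation after a 0.5% phosphoric acid wash, into poly(Glu,Tyr) 4:1 or poly(Arg,Ser) 3:1 substrates coated on plates. Enzymes were tagged (GST or polyHis) kinase domains or full-length proteins from bacterial or insect-cell expression, sometimes with regulatory polypeptides.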

The next experiment deals with T4, AKT (Homo sapiens, UniProt Q9Y243).
T4 construct: Kinases are expressed as either kinase domains or full length constructs; made in house
T4 sequence (Q9Y243 whole entry, the tested form may be a part): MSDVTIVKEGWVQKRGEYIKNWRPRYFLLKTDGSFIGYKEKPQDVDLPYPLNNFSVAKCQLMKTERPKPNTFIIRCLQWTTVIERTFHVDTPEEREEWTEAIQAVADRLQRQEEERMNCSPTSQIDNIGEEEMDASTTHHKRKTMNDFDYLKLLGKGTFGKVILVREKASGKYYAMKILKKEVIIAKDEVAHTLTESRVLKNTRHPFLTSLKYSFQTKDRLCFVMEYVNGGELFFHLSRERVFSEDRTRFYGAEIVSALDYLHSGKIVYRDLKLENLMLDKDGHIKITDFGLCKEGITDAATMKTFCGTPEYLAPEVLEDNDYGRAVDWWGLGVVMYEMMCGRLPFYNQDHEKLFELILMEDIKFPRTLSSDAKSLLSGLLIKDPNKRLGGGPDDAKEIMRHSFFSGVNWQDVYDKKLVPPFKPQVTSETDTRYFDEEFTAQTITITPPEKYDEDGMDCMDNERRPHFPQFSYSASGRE
As to the kind of experiment: Kinase inhibition assay (33P transfer), AKT. The settings on record: Table 2, class symbols A-E; read-out: AKT3-1. In outline: as §2

A further experiment has as its target T5, ErbB2 (Homo sapiens, UniProt P04626).
T5 construct: Kinases are expressed as either kinase domains or full length constructs; made in house
In words: Kinase inhibition assay (33P transfer), ErbB2. The settings on record: read-out: ErbB2-2. The method, boiled down:
as §1

Another experiment deals with T6, Lck (Homo sapiens, UniProt P06239).
T6 construct: Kinases are expressed as either kinase domains or full length constructs; made in house
T6 sequence (P06239 whole entry, species assumed, the tested form may be a part): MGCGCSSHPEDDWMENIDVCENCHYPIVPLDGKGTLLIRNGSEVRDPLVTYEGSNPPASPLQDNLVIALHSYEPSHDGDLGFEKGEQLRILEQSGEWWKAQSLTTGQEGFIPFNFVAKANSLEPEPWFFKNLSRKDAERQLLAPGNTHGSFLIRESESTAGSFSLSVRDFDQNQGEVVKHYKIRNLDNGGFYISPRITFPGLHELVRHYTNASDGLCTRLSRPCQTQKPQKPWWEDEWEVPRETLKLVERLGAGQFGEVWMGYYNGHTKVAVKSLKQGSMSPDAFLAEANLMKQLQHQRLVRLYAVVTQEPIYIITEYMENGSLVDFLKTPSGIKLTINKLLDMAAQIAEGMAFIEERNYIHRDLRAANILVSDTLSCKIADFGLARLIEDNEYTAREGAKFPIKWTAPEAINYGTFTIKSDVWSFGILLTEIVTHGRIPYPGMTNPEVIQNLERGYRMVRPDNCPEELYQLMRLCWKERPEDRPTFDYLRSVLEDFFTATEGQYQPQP
As to the kind of experiment: Kinase inhibition assay (33P transfer), Lck. The settings on record: Table 3, class symbols; read-out: Lck-1. In outline:
as §2

In the next experiment the target is T7, c-Met (Homo sapiens, UniProt P08581).
T7 construct: Kinases are expressed as either kinase domains or full length constructs; made in house
As to the kind of experiment: Kinase inhibition assay (33P transfer), c-Met. The settings on record: Table 2, class symbols A-E; read-out: Met-1. The method, boiled down:
as §1

The next experiment concerns the target T8, Kdr (Homo sapiens, UniProt P35968).
T8 construct: Kinases are expressed as either kinase domains or full length constructs; made in house
In words: Kinase inhibition assay (33P transfer), Kdr. The settings on record: Table 3, class symbols; read-out: KDR-1. The method, boiled down:
as §2

A further experiment addresses T9, Itk (Homo sapiens, UniProt Q08881).
T9 construct: Kinases are expressed as either kinase domains or full length constructs; made in house
T9 sequence (Q08881 1-620): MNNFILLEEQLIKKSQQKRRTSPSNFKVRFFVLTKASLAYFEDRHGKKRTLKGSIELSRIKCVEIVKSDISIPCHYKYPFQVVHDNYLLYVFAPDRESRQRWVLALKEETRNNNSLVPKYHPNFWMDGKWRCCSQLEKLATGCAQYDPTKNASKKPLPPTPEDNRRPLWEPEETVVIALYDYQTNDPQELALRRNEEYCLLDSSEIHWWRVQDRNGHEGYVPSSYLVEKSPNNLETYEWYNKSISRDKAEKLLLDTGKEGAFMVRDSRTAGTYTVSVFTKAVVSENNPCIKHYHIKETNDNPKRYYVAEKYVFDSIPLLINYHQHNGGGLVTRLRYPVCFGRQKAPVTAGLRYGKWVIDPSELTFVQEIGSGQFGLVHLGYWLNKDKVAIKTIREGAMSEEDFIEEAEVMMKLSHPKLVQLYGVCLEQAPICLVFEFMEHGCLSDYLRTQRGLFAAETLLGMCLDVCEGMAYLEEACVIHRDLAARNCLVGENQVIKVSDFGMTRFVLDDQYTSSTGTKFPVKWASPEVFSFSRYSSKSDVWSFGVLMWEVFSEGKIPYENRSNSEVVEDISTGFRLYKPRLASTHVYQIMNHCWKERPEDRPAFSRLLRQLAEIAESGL
As to the kind of experiment: Kinase inhibition assay (33P transfer), Itk. The settings on record: Table 3, class symbols; read-out: Itk-1. The method, boiled down:
as §1

The target in the next experiment is T10, PDGFRB (Homo sapiens, UniProt P09619).
T10 construct: Kinases are expressed as either kinase domains or full length constructs; made in house
As to the kind of experiment: Kinase inhibition assay (33P transfer), PDGFRB. The settings on record: read-out: PDGFRB-1.

In US7074789B2, “Kinase inhibitors” (Amgen Inc., priority 1999, dated 2006) one finds IC50 data, which are given here for eight compounds.

T1 sequence (P08069 31-1367): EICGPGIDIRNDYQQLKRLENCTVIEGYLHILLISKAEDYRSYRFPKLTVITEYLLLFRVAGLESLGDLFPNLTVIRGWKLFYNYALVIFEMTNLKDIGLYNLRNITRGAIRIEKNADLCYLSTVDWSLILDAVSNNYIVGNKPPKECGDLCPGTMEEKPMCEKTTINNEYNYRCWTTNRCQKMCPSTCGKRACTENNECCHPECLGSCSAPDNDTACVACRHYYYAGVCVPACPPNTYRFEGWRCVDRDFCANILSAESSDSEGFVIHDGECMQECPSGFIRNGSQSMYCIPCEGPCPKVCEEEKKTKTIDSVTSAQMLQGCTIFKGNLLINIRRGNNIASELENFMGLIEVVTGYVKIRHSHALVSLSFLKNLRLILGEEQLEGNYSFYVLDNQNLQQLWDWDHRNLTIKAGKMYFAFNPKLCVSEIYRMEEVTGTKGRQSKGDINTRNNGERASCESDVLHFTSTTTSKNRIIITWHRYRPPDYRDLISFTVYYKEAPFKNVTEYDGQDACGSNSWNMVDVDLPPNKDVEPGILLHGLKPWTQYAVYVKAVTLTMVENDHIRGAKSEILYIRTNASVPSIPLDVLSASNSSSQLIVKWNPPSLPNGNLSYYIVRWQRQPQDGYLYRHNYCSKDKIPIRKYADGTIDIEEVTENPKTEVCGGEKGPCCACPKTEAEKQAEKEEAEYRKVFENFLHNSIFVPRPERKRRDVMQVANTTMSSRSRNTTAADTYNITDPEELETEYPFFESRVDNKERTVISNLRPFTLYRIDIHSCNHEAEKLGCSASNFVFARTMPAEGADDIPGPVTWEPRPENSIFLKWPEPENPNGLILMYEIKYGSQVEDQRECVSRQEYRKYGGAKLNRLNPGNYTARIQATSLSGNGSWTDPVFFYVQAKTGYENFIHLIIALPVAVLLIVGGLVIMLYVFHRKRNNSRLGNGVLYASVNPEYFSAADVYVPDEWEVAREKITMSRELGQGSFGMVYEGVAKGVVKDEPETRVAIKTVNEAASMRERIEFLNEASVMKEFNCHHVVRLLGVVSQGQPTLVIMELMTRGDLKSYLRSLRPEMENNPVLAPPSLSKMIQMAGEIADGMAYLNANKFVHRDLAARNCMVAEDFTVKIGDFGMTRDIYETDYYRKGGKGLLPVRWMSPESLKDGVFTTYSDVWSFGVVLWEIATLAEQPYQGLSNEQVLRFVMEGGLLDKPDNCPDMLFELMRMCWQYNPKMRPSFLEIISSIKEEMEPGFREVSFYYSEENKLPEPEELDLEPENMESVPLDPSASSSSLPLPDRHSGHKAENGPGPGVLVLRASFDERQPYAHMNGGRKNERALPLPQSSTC
T2 sequence (P00533 25-1210, species assumed): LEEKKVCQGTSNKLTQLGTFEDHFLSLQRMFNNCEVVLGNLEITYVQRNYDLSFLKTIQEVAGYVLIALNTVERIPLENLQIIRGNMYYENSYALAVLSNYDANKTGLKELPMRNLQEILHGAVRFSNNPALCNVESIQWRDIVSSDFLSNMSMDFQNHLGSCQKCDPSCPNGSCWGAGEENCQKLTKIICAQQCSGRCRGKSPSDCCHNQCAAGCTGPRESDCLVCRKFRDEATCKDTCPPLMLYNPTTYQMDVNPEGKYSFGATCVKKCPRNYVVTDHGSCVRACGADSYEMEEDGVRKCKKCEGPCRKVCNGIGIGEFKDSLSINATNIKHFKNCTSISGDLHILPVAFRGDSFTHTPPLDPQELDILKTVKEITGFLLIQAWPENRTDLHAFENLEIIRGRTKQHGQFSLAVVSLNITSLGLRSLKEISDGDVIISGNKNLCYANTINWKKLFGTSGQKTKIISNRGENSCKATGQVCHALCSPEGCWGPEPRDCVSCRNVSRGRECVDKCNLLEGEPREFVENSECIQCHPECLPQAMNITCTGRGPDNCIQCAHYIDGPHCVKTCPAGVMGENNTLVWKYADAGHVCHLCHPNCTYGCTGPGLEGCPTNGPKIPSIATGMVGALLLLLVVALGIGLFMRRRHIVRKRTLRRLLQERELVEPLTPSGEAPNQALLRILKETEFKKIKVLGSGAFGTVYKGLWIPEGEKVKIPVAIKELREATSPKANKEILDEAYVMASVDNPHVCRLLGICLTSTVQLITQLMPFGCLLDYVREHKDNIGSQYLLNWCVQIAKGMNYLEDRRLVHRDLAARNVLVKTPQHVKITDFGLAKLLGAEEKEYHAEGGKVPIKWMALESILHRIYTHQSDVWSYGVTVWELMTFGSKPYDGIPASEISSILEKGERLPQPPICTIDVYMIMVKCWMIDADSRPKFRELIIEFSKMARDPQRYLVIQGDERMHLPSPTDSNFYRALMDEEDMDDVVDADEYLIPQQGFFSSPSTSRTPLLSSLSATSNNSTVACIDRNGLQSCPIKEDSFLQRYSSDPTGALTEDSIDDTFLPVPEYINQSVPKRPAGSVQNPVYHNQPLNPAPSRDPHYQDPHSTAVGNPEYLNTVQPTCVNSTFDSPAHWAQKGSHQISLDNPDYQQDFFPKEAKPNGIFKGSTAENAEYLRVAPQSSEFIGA
T5 sequence (P04626 23-1255, species assumed): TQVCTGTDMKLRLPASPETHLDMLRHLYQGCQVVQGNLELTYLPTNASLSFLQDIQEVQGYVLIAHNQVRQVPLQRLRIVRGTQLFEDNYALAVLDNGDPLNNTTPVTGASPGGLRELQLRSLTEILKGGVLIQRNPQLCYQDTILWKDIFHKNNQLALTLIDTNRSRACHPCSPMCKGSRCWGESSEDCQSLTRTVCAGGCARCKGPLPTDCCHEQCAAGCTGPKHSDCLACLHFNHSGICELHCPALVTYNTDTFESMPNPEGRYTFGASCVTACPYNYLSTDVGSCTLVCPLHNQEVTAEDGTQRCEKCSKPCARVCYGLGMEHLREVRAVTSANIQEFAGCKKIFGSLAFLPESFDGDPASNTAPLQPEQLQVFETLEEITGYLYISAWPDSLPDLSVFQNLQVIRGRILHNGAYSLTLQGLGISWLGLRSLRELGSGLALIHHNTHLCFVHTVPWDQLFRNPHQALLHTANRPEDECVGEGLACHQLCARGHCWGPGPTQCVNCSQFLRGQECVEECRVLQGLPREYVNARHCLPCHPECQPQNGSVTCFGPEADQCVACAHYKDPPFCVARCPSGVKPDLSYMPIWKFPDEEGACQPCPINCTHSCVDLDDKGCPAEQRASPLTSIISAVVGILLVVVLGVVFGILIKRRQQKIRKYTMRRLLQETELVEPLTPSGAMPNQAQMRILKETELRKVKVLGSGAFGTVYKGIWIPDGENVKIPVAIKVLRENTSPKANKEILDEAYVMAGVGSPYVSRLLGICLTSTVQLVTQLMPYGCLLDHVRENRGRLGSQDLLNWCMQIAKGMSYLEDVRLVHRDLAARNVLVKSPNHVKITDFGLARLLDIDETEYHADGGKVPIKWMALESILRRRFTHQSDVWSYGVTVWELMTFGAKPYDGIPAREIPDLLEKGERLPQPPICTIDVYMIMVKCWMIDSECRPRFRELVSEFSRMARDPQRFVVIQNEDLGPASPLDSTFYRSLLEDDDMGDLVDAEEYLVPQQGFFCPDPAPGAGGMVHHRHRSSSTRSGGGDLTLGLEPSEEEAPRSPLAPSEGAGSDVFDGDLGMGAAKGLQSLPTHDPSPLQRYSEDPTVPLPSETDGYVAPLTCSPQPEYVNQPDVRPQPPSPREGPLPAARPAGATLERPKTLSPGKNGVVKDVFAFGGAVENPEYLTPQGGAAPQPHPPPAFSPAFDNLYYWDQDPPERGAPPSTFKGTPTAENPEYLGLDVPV

As for `CN(c1cccc(Cl)c1)c1ncnc(Nc2ccc(OC(F)(F)F)cc2)n1` [Compound 874], the IC50 on IGFR-1 was > 11.4 µM; at EGFR, 1.01 to 6.06 µM; at Zap-70, > 11.4 µM; at AKT, > 11.4 µM; on ErbB2, > 11.4 µM; on Lck it was > 11.4 µM. Further, the IC50 on c-Met, on Kdr, on Itk and at PDGFRB was > 11.4 µM in each case.

As to `CN(c1cccc(Cl)c1)c1ncnc(Nc2cccc(OC(F)(F)F)c2)n1` [Compound 875], the IC50 against IGFR-1 is > 11.4 µM; on EGFR, < 1.01 µM; at Zap-70, > 11.4 µM; on AKT it was > 11.4 µM; at ErbB2, 1.01 to 6.06 µM; at Lck, > 11.4 µM. In addition, the IC50 was in the range of 6.06 to 8.84 µM on c-Met, 6.06 to 8.84 µM on Kdr, 8.84 to 11.4 µM at Itk and 1.01 to 6.06 µM on PDGFRB.

For `COc1cc(Nc2ncnc(N(C)c3cccc(Cl)c3)n2)cc2ccccc12` [Compound 876], the IC50 on IGFR-1 was > 11.5 µM; on EGFR it was < 1.02 µM; at Zap-70, > 11.5 µM; on AKT, > 11.5 µM; on ErbB2, 1.02 to 6.12 µM; on Lck, > 11.5 µM. In addition, the IC50 at c-Met is > 11.5 µM; on Kdr, > 11.5 µM; on Itk, 8.93 to 11.5 µM; at PDGFRB, > 11.5 µM.

As to `COC(=O)c1ccc(-c2cc(Nc3ncnc(NCc4cccs4)n3)[nH]n2)cc1` [Compound 877], the IC50 against IGFR-1 was 8.59 to 11 µM; on EGFR, 5.89 to 8.59 µM; on Zap-70, > 11 µM; at AKT, > 11 µM; on ErbB2, > 11 µM; on Lck it was > 11 µM. Besides, the IC50 on c-Met is 0.982 to 5.89 µM; on Kdr it was > 11 µM; on Itk, 0.982 to 5.89 µM; on PDGFRB, 0.982 to 5.89 µM.

For `COC(=O)c1ccc(-c2cc(Nc3ncnc(Nc4cccc5ncccc45)n3)[nH]n2)cc1` [Compound 878], the IC50 is 5.47 to 7.98 µM on IGFR-1; > 10.3 µM at EGFR; > 10.3 µM at Zap-70; > 10.3 µM at AKT; > 10.3 µM at ErbB2; > 10.3 µM on Lck. Moreover, the IC50 at c-Met is 7.98 to 10.3 µM; at Kdr, > 10.3 µM; on Itk, 7.98 to 10.3 µM; at PDGFRB, 0.912 to 5.47 µM.

As for `CCOc1ccc(Nc2ncnc(Nc3cc(-c4ccc(C(=O)OC)cc4)n[nH]3)n2)cc1` [Compound 879], the IC50 against IGFR-1 was 5.56 to 8.11 µM; on EGFR, 0.927 to 5.56 µM; on Zap-70 it was > 10.4 µM; at AKT it was > 10.4 µM; on ErbB2 it was > 10.4 µM; at Lck, > 10.4 µM. The IC50 at c-Met was 0.927 to 5.56 µM; on Kdr, > 10.4 µM; on Itk, 8.11 to 10.4 µM; on PDGFRB it was 0.927 to 5.56 µM.

For the compound `COC(=O)c1ccc(-c2cc(Nc3ncnc(Nc4cc(=O)n(-c5ccccc5)[nH]4)n3)[nH]n2)cc1` [Compound 880], the IC50 against IGFR-1 is > 9.59 µM; on EGFR, 0.852 to 5.11 µM; on Zap-70 it was > 9.59 µM; on AKT, > 9.59 µM; on ErbB2, 5.11 to 7.46 µM; on Lck it was > 9.59 µM. In addition, the IC50 on c-Met was 0.852 to 5.11 µM; on Kdr, 5.11 to 7.46 µM; on Itk, > 9.59 µM; at PDGFRB, 0.852 to 5.11 µM.

Take `COC(=O)c1ccc(-c2cc(Nc3ncnc(NC4=NC(=O)CS4)n3)[nH]n2)cc1` [Compound 881]: the IC50 against IGFR-1 was 0.975 to 5.85 µM; on EGFR, 0.975 to 5.85 µM; on Zap-70, > 11 µM; at AKT, > 11 µM; at ErbB2, 0.975 to 5.85 µM; at Lck, > 11 µM. For the same compound, the IC50 at c-Met, on Kdr, at Itk and on PDGFRB was 0.975 to 5.85 µM each time.
